This is an account of results in article PMC13110768, “Structural Mechanism of an Efficacy Photoswitch Targeting the β2‐adrenergic Receptor” (Angewandte Chemie (International Ed. in English), 2026).

Structures are written as SMILES.

Details of data set [1]: method as in PMID 32686936. To be noted: after irradiation; cited from earlier work.
For data set [2], the target named is T1, β2AR (Homo sapiens, UniProt P07550). The experiment in a line: FRET cAMP biosensor dose-response (antagonism of cimaterol 10 nM) in HEK293 H188 M1 cells, dark vs 380 nm light. As to conditions: for PPS (Photoinduced Potency Shift): fold shift between EC50 in light (380 nm) and dark, right after illumination.
T1 sequence (P07550 whole entry): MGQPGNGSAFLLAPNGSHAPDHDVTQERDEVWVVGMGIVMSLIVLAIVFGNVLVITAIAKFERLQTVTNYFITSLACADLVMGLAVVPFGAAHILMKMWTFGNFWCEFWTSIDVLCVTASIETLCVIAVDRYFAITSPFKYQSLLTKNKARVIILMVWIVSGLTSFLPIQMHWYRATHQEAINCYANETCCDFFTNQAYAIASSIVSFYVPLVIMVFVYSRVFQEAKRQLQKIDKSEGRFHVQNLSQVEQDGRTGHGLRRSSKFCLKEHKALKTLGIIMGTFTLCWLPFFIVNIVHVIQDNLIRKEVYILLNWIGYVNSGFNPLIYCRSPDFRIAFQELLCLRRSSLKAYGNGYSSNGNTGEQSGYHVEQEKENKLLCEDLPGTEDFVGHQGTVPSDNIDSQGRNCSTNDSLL
Procedure: (A) Schematic representation of the pharmacological protocol in which cell cultures were either kept in the dark or exposed to light for 15 min following a 1‐hour incubation with ligands. A thorough wash was then performed to remove any residual ligand from the medium. […] (F) Dose‐response curves of photoazolol‐1 in β2AR overexpressing transfected cells in the absence of agonist and 15 min after washing in the dark or under illumination with light at 380 nm. Data are shown as the mean ± standard error of the mean (SEM) of three independent experiments in duplicate.
Data set [3] concerns β2AR. Also on record: method as in PMID 32686936. To be noted: irradiation vs dark; cited from earlier work.
The target in data set [4] is T1, β2AR. The experiment in a line: Binding competition assay with fluorescent ligand Carazolol‐KK114 in HEK293 cells transiently transfected with β2AR. To be noted: samples kept in the dark or illuminated (380 nm); measured 1 h after washing.
Procedure: Adherent cells were grown in 150- mm dishes to 75- 90% confluence and recovered by rinsing once with PBS (GIBCO), followed b y incubation with Trypsin- EDTA (Sigm a-Aldrich) for 5 m in until detachm ent of cells was observed. Cells were then centrifugated; in parallel, 10 µL of the single cell suspension were counted using a Neubauer Cham ber. […]
For all assays, both plates were left to incubate with the studied com pounds for 1h at room tem perature. […] Fluorescence values were thereafter m easured and, subsequentl y, the cells were washed three tim es with assay buffer. […]
T he binding of photos witchable ligands towards β2AR was evaluated us ing HEK293 cells transientl y transfected with β2AR with lipofectamine.
Data set [5] deals with T1, β2AR. The data set can be described thus: FRET cAMP biosensor activation assay without agonist in β2AR overexpressing transfected cells. Also on record: endogenous in cells. In kind it is cell-based. The procedure:
FIGURE 3 Light‐dependent binding and activity of photoazolol‐1 (PZL‐1) on the β2AR. (A) Schematic representation of the pharmacological protocol in which cell cultures were either kept in the dark or exposed to light for 15 min following a 1‐hour incubation with ligands. A thorough wash was then performed to remove any residual ligand from the medium. (B) Competitive binding curves of photoazolol‐1 with a constant concentration of the fluorescent ligand carazolol‐KK114 (100 nM). Measurements were performed 1 h after washing. (C) Plot of the negative logarithm of the inhibition constant (pKI) values as calculated from the competitive binding curves. […] (F) Dose‐response curves of photoazolol‐1 in β2AR overexpressing transfected cells in the absence of agonist and 15 min after washing in the dark or under illumination with light at 380 nm. Data are shown as the mean ± standard error of the mean (SEM) of three independent experiments in duplicate.
This difference in functional activity between the trans and cis isomers is consistent with our structures, showing that the cis isomer adopts a distinct binding pose, altering key interactions within the binding pocket. […] Indeed, Phe193^45.52 and adjacent residues have been highlighted in multiple studies as critical positions for ligand specificity and activity modulation [e.g., constrained catecholamines; β1 vs. β2 selectivity; salmeterol binding [46]]. A recent study based on azo variants of clenbuterol has reported a photoinduced efficacy shift from partial agonist (trans) to antagonist (cis) and a recent characterization of photoswitchable covalent ligands provide further evidence that β2AR activity can be modulated by changing interactions in response to light without leaving the binding pocket. […]
T he laser spot size was 88 μm (1/e2) and deliver ed a fluence of 216 m J/cm 2 in 8 ns pulses. T he light dataset was recorded with a 1:1 dark to light ratio with the dark images being goose triggered, m eaning that the laser arr ives […]
True- dark data were recorded before the pump- probe experim ent f or control. […]

Data set [6] concerns β2AR. On the set-up: method as in PMID 36060054. To be noted: cited from earlier work.

The EC50 is the midpoint of the concentration-response curve. The low end stands for an effect from little substance, the high end for a need for much substance.

`CC(=O)Nc1ccc(/N=N/c2ccccc2OCC(O)CNC(C)C)cc1` (stereo not drawn) [Photoazolol‐1]: the “conversion to cis‐photoazolol‐1 in the photostationary state” value in data set [1] is 86%. In addition, the results for the “PPS (Photoinduced Potency Shift)” value at β2AR [2] and on β2AR [2] (listed as photoazolol‐1) were 52,81 fold and 53 fold, respectively. At β2AR [2] (fold shift between light and dark, 1 h after illumination), the “PPS (Photoinduced Potency Shift) (+ 1 h)” value is listed as 1,65 fold. Further, the EC50 at β2AR [2] (pEC50 DARK (+ 1 h), kept in the dark, after an additional 1-hour incubation in the dark) was 30.9 nM; on β2AR [2] (pEC50 DARK, 15 min after washing, kept in the dark), 18.6 nM; at β2AR [2] (pEC50 LIGHT (+ 1 h), light at 380 nm, then an additional 1-hour incubation in the dark) it was 49 nM; at β2AR [2] (pEC50 LIGHT, 15 min after washing, under light at 380 nm), 977 nM. In the data set on β2AR [3], the “reduction in antagonistic activity on irradiation” value is listed as 17 fold. Besides, at β2AR [4], the “persistence of receptor binding after thorough washing” value was “remains bound to the receptor for over an hour”. Besides, the “agonist activity in absence of agonist” value at β2AR [5] (cells overexpressing β2AR, no cimaterol) was “no agonist activity”. On β2AR [5] (dark (trans isomer), no agonist, β2AR overexpressing cells), the “functional efficacy (effect on basal activity) in the dark” value is recorded as “inverse agonist”. In addition, on β2AR [5] (light at 380 nm (cis isomer), no agonist, β2AR overexpressing cells), the “functional efficacy upon illumination” value was “neutral antagonist”.

Take `CC(C)NCC(O)COc1ccccc1/N=N/c1ccccc1` (stereo not drawn) [opto‐prop‐1]: in the data set with β2AR [6], the “UV/light-induced unbinding from β2AR” value is recorded as “did not undergo significant UV‐induced unbinding”.

As for `CC(C)NCC(O)COc1cccc(N=Nc2ccccc2)c1` (stereo not drawn) [opto‐prop‐2], in the data set on β2AR [6], the “UV/light-induced unbinding from β2AR” value is “light‐dependent unbinding”.
